This note sets out measurements from patent US11795162B2, “Modulators of the estrogen-related receptor” (Saint Louis University, priority 2017, dated 2023).

The target in one assay is T1, ERRγ (Homo sapiens, UniProt P62508).
T1 construct: Data for selected compounds in the full-length; expressed in transfected cells; host or cells: HEK293
T1 sequence (P62508 1-458): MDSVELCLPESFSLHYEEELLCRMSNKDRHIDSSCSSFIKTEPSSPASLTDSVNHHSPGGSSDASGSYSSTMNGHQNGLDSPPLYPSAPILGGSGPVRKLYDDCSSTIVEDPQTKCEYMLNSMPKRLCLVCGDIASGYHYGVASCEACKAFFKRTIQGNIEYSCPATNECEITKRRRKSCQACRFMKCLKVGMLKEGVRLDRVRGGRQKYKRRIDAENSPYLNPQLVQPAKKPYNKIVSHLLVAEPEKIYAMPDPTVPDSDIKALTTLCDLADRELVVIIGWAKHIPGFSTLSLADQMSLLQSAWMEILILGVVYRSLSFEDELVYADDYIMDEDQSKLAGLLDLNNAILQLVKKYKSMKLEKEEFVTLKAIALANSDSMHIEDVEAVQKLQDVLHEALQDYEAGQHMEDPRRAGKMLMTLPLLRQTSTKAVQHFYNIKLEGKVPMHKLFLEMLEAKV
In words: Full-length ERRγ luciferase reporter assay (ERRE reporter, HEK293 cells). It counts as cell-based. The note with it: HEK293 cells transfected with ERRE reporter and pcDNA3.1 ERRγ, 24 hours treatment. The protocol:
Luciferase Assay. HEK293 cells were maintained in Dulbecco's modified Eagles medium (DMEM) supplemented with 10% fetal bovine serum at 37° C. under 5% CO2. […] Cells were transfected with ERRE reporter construct and pcDNA3.1 ERRγ. 24 hour post-transfection, the cells were treated with vehicle or compound for 24 hours.

For the next assay, the target named is T2, ERR gamma protein (Homo sapiens, UniProt P62508).
T2 sequence (P62508 1-458): T1 sequence (P62508 1-458)
In words: Protein thermal shift assay. It counts as binding. The note with it: compound at 20 μM; ERR gamma protein 0.1 mg/mL, SYPRO-Orange; read-out: T.S. (thermal shift) range. The method, then: Six replicate reactions were set up and run in Applied Biosystems Quantstudio 7 Real-Time PCR system. Data were collected at a ramp rate of 0.05° C./s from 24° C. through 95° C. and analyzed using Protein Thermal Shift Software 1.3.

One may read the EC50 as the midpoint of the concentration-response curve.

On ERRγ, `O=C(Nc1cccc(F)c1)c1ccc(-c2ccc(B(O)O)cc2)s1` [Compound 8, (4-(5-((3-fluorophenyl)carbamoyl)thiophen-2-yl)phenyl)boronic acid] gave an EC50 of 89 nM.

With `O=C(Nc1cccc(F)c1)c1ccc(-c2ccc(O)cc2)o1` [Compound 157], the EC50 on ERRγ is 3400 nM.

In turn, `O=C(Nc1ccc2ccccc2c1)c1cc(-c2ccc(O)cc2)[nH]n1` [Compound 122] came in with a 50% effective concentration (EC50) at ERRγ of 734 nM. Besides, the ΔTm at 20 µM on ERR gamma protein fell in the range of 2 to 4 °C.

At ERRγ, `O=C(Nc1cccc(B(O)O)c1)c1ccc(-c2cccc(F)c2)s1` [Compound 50] gave an EC50 of 563 nM. Also, the ΔTm at 20 µM at ERR gamma protein lay in the range of 2 to 4 °C.

As to `O=C(Nc1ccc(O)cc1)c1ccc(-c2ccc(C(F)(F)F)cc2)s1` [Compound 114], a half-maximal response on ERRγ (EC50) required 2680 nM. The ΔTm at 20 µM on ERR gamma protein is 2 to 4 °C.

`O=C(NC1CCC(O)CC1)c1ccc(-c2ccccc2)o1` (stereo not shown) [Compound 135] yielded an EC50 at ERRγ of 3500 nM.

For `O=C(Nc1cccc(O)c1)c1ccc(-c2ccsc2)s1` [Compound 74], at ERRγ, the EC50 is 1010 nM.

Compound `O=C(Nc1ccc(Cl)cc1)c1cc(-c2cccc(O)c2)[nH]n1` [Compound 125] had a 50% effective concentration (EC50) on ERRγ greater than 25000 nM. Moreover, on ERR gamma protein, the ΔTm at 20 µM fell in the range of 2 to 4 °C.

Turning to `CC(C)c1ccc(NC(=O)c2cc(-c3ccc(O)cc3)[nH]n2)cc1` [Compound 5, 3-(4-hydroxyphenyl)-N-(4-isopropylphenyl)-1H-pyrazole-5-carboxamide], the ΔTm at 20 µM at ERR gamma protein lay within 2 to 4 °C.
